{"source": "patent US11262362B2", "about": "“2-hydroxyglutarate as a biomarker for chronic hypoxia” (MEMORIAL SLOAN KETTERING CANCER CENTER, priority 2011, dated 2022)", "test_system": "SF188 cells", "assay": "Viability of glutamine-starved SF188 cells in hypoxia (trypan blue dye exclusion)", "assay_type": "cell-based, human", "details": "0.5% O2, glutamine-deficient medium supplemented with 7 mM dimethyl α-ketoglutarate, 48 h", "method": "In FIG. 2(A), SF188 cells were cultured for 24 h in complete medium equilibrated with either 21% O2 (Normoxia) or 0.5% O2 (Hypoxia). Culture medium was then removed from cells and analyzed for glutamine levels which were compared to the glutamine levels in fresh medium. Data are the mean±SEM of 3 independent experiments. […] Cells were cultured in complete medium equilibrated with 0.5% O2 for 24 h, followed by an additional 48 h at 0.5% O2 in either complete medium (+Gln), glutamine-deficient medium (−Gln), or glutamine-deficient medium supplemented with 7 mM dimethyl α-ketoglutarate (−Gln+αKG). All medium was pre-conditioned in 0.5% O2. Cell viability was determined by trypan blue dye exclusion. Data are the mean and range from 2 independent experiments. FIG. 2(C) depicts a model of the pathways for cit+4 and cit+5 production from [U-^13C]glutamine (glutamine+5). […] Cells were cultured for 24 h as in (A), followed by 4 h of culture in glutamine-deficient medium supplemented with 4 mM [U-^13C]glutamine. ^13C enrichment in cellular citrate was quantitated with GC-MS. […]\nSF188 and RCC4 cells were cultured in Dulbecco's Modified Eagle's Medium (DMEM; Invitrogen 11965), 10% fetal bovine serum (FBS; Gemini Biosystems), 100 units/ml Penicillin, 100 ug/ml Streptomycin, 25 mM glucose, and 6 mM L-glutamine. […] Viability was determined by trypan blue exclusion. […]", "data": [{"smiles": "COC(=O)CCC(=O)C(=O)OC", "note": "[dimethyl α-ketoglutarate]", "values": [{"measurement": "cell viability upon glutamine withdrawal", "result": "rescued the defect in cell viability"}]}]}
